The numbers were not newly measured in US20130012613A1, “METHOD FOR SYNTHESIZING CALIXARENE AND/OR CYCLODEXTRIN COPOLYMERS, TERPOLYMERS AND TETRAPOLYMERS, AND USES THEREOF” (Drug Research Technology Transfer LLC, priority 2009, published 2013), which cites them from elsewhere.

Converted amounts (≈) assume the structure as drawn.

The conditions of this data set: native cyclodextrins.
Take `OC[C@H]1O[C@@H]2O[C@H]3[C@H](O)[C@@H](O)[C@@H](O[C@H]4[C@H](O)[C@@H](O)[C@@H](O[C@H]5[C@H](O)[C@@H](O)[C@@H](O[C@H]6[C@H](O)[C@@H](O)[C@@H](O[C@H]7[C@H](O)[C@@H](O)[C@@H](O[C@H]1[C@H](O)[C@H]2O)O[C@@H]7CO)O[C@@H]6CO)O[C@@H]5CO)O[C@@H]4CO)O[C@@H]3CO` [alpha-CD, alpha-cyclodextrin]: the solubility in water is 127 mg/mL (≈ 131 mM).

For the molecule `OC[C@H]1O[C@@H]2O[C@H]3[C@H](O)[C@@H](O)[C@@H](O[C@H]4[C@H](O)[C@@H](O)[C@@H](O[C@H]5[C@H](O)[C@@H](O)[C@@H](O[C@H]6[C@H](O)[C@@H](O)[C@@H](O[C@H]7[C@H](O)[C@@H](O)[C@@H](O[C@H]8[C@H](O)[C@@H](O)[C@@H](O[C@H]1[C@H](O)[C@H]2O)O[C@@H]8CO)O[C@@H]7CO)O[C@@H]6CO)O[C@@H]5CO)O[C@@H]4CO)O[C@@H]3CO` [beta-CD, beta-cyclodextrin], the solubility in water is 18.8 mg/mL (≈ 16.6 mM).

Consider `OC[C@H]1O[C@@H]2O[C@H]3[C@H](O)[C@@H](O)[C@@H](O[C@H]4[C@H](O)[C@@H](O)[C@@H](O[C@H]5[C@H](O)[C@@H](O)[C@@H](O[C@H]6[C@H](O)[C@@H](O)[C@@H](O[C@H]7[C@H](O)[C@@H](O)[C@@H](O[C@H]8[C@H](O)[C@@H](O)[C@@H](O[C@H]9[C@H](O)[C@@H](O)[C@@H](O[C@H]1[C@H](O)[C@H]2O)O[C@@H]9CO)O[C@@H]8CO)O[C@@H]7CO)O[C@@H]6CO)O[C@@H]5CO)O[C@@H]4CO)O[C@@H]3CO` [gamma-CD, gamma-cyclodextrin], for which the solubility in water was 236 mg/mL (≈ 182 mM).
